Experiments:
inflammatory pain = assay: Thermal Pain Test in Rats (analgesic activity on inflammatory pain); format: in vivo, rat (male Wistar); conditions: for Inhibition %, Analgesic activity: Table I; for ED50: Rattus norvegicus, po, P.O., mean at 1 and 2 hours after drug, rats, Table II, read-out: Analgesic activity, Thermal Pain Test ID50
Description: II. ANALGESIC ACTIVITY ON INFLAMMATORY PAIN
Thermal Pain Test in Rats
The test was conducted according to the method reported by Y. Iizuka and K. Tanaka in Folia Pharmacol. Japan, 70, 697 (1974).
Under ether anesthesia, male Wistar rat of 5-7 weeks old received a standard heat injury at the hind paw by dipping it in hot water (57° C., 6 seconds). More than 1 hour later, the pain reaction could be evoked easily by another stimulatory heat (40° C., 5 seconds). Namely immediately after this treatment, the animal used to lift up the injured paw, presumably to avoid further pain which might be caused by touching it with the wire-netting of the cage.
Thus, the sum of duration time of the paw-lifting behavior was counted over a 30 seconds period and this was used as "pain reaction time." Drug was given orally 2 hours after the first application of heat and the mean value of "pain reaction time" at 1 and 2 hours after drug administration was used as the response.
(§1) In order to get the regression line of H (% inhibition of the response) on D (dose of test drug), H in each animal was calculated from the ratio of the response to the mean response in non-medicated group. Then, the regression line and ID50 were obtained by the method of least squares. The confidence limits of ID50 was calculated using Fieller's Equation.

[1] = system: carrageenin-induced paw edema; assay: Carrageenin Edema Test in Rats; format: in vivo, rat (male Wistar); conditions: for Inhibition %, Anti-inflammatory activity: Table I; for ED50: Rattus norvegicus, po, P.O., 30 minutes before carrageenin, edema 3 hours after, rats, Table II, read-out: Anti-inflammatory activity, Carrageenin Edema Test ID50
Description: (1) Carrageenin Edema Test in Rats
Inflammation was introduced by injection of 0.05 ml. of 1% carrageenin suspension into the plantar tissue of rat hind paw subcutaneously, by the method of Winter et al. in Proc. Soc. Exp. Biol. Med. 111, 544 (1962). Male Wistar rats weighing 120 to 150 g. which had fasted overnight received the test drug in aqueous tragacanth suspension orally 30 minutes before the carrageenin injection.
Paw edema was measured volumetrically, just before and 3 hours after the carrageenin injection, and R (response) was obtained by the following equation: R=(V-Vo)/Vo, where Vo and V represented the paw volumes 0 and 3 hours after carrageenin injection, respectively.
as §1

LPS-induced fever = assay: LPS-induced Fever Test in Guinea Pigs (antipyretic activity); format: in vivo, guinea pig (female Hartley); conditions: Cavia porcellus, po, P.O., 1.5 hours after LPS, mean at 1 and 2 hours after drug, Table II, read-out: Antipyretic activity, LPS-induced Fever Test ID50
Description: III. ANTIPYRETIC ACTIVITY
LPS-induced Fever Test in Guinea Pigs
Antipyretic activity was determined by a modified method of Kobayashi and Takagi in Jap. J. Pharmacol. 18, 80 (1968). Female Hartley guinea pigs weighing about 300 g. had fasted overnight and the fever was induced by injecting 1.0 μg/ml/kg LPS (product of Difco Laboratories, U.S.A., Lipo polysaccharide from Escherichia coli).
One hour after the injection, rectal temperature was measured and only the animals with fever between 0.8° C. and 1.2° C. were used for experiment.
Drugs were administered orally 1.5 hours after LPS injection, and the mean value of rectal temperature of each animal 1 and 2 hours after drug administration was used as the response.
as §1

[2] = system: adjuvant-induced arthritis; assay: Adjuvant-induced Arthritis Test in Rats (Therapeutic Effect on Established Arthritis); format: in vivo, rat (female Lewis); conditions: Rattus norvegicus, po, 168 h, P.O., twice a day, 7 days (day 18 to 25), Table II, read-out: Anti-inflammatory activity, Adjuvant Arthritis Test ID50
Description: (2) Adjuvant-induced Arthritis Test in Rats
(Therapeutic Effect on Established Arthritis)
Female Lewis rats of 7-8 weeks old were injected intradermally in the hind paw with 0.05 mg. of heat-killed Mycobacterium butyricum in 0.05 ml. of liquid paraffin. Eighteen days after adjuvant injection, the well-established arthritic animals were selected and subjected to 7 days therapy with drug (twice a day orally). As the response, the volume of injected foot was measured by water displacement method at the beginning (day 18) and the end (day 25) of the therapy period.
as §1
In adjuvant arthritis, however, the ratio (RR) of responses after/before medication period was calculated first, where the response meant the swelled foot volume of the injected foot. Then, H in each animal was calculated from the ratio of RR to RRc, where RRc represented the mean RR is non-medicated group.

Q: CCCCC1C(=O)N(c2ccccc2)N(c2ccccc2)C1=O [Phenylbutazone, reference compound] was tested. Which “Inhibition %, Analgesic activity” value (inflammatory pain; (Control) 19 mg/kg (P.O.)) did it give?
A: 37%

Q: What about the “Inhibition %, Anti-inflammatory activity” value ([1]; (Control) 25 mg/kg (P.O.)) of the same molecule?
A: 30.6%

Q: Which “Inhibition %, Analgesic activity” value (inflammatory pain; 6.3 mg/kg (P.O.)) does the source give for CCOC(=O)C(C)c1ccc(C=C2CCCC2=O)cc1 (stereo not shown) [Ethyl 2-[4-(2-oxo-1-cyclopentylidenemethyl)phenyl]propionate] here?
A: 50.5%

Q: What about the “Inhibition %, Anti-inflammatory activity” value ([1]; 6.3 mg/kg (P.O.)) of the same molecule?
A: 85.0%

Q: Which results are given for CC(C(=O)O)c1ccc(C=C2CCCC2=O)cc1 (stereo not shown) [2-[4-(2-Oxo-1-cyclopentylidenemethyl)phenyl]propionic acid]?
A: ED50 (LPS-induced fever): 0.83 mg/kg; Inhibition %, Analgesic activity (inflammatory pain; 6.3 mg/kg (P.O.)): 77.4%; ED50 (inflammatory pain): 1.3 mg/kg; ED50 [2]: 1.2 mg/kg; Inhibition %, Anti-inflammatory activity ([1]; 6.3 mg/kg (P.O.)): 76.4%; ED50 [1]: 1.4 mg/kg

Q: What does the source list for CC(C)Cc1ccc(C(C)C(=O)O)cc1 (stereo not shown) [Ibuprofen, reference compound]?
A: ED50 (LPS-induced fever): 1.26 mg/kg; ED50 (inflammatory pain): 17.8 mg/kg; ED50 [2]: 104 mg/kg; ED50 [1]: 10.8 mg/kg

Q: Which results are given for CCOC(=O)C(C)c1ccc(C=C2CCCCC2=O)cc1 (stereo not shown) [Ethyl 2-[4-(2-oxo-1-cyclohexylidenemethyl)phenyl]propionate]?
A: Inhibition %, Analgesic activity (inflammatory pain; 6.3 mg/kg (P.O.)): 59.2%; Inhibition %, Anti-inflammatory activity ([1]; 6.3 mg/kg (P.O.)): 72.7%

Q: With CC(C(=O)O)c1ccc(C=C2CCCCC2=O)cc1 (stereo not shown) [2-[4-(2-Oxo-1-cyclohexylidenemethyl)phenyl]propionic acid] as the molecule, how does the ED50 (LPS-induced fever) read?
A: 1.46 mg/kg

Q: What about the “Inhibition %, Analgesic activity” value (inflammatory pain; 6.3 mg/kg (P.O.)) of the same molecule?
A: 86.8%

Q: What about the ED50 (inflammatory pain) of the same molecule?
A: 1.8 mg/kg

Q: And the ED50 [2]?
A: 0.2 mg/kg

Q: What about the “Inhibition %, Anti-inflammatory activity” value ([1]; 6.3 mg/kg (P.O.)) of the same molecule?
A: 75.0%

Q: And the ED50 [1]?
A: 1.2 mg/kg

Source: patent US4365076A, “Process for the preparation of cycloalkylidenemethylphenylacetic acid derivatives” (Sankyo Company Limited, priority 1977, dated 1982)
